Laboratory results taken from patent publication US20100137449A1, “SUBSTITUTED 1,3-CYCLOPENTADIONE MULTI-TARGET PROTEIN KINASE MODULATORS OF CANCER, ANGIOGENESIS AND THE INFLAMMATORY PATHWAYS ASSOCIATED THEREWITH” (METAPROTEOMICS, LLC, priority 2007, published 2010).

Experiments:
Test in all cases: KinaseProfiler Assay
CDK1/cyclinB(h) = CDK1/cyclinB(h) (Homo sapiens, UniProt P06493)
cKit(V560G)(h) = cKit(V560G)(h) (Homo sapiens, UniProt P10721, V560G)
Bmx(h) = target: T1, Bmx(h) (Homo sapiens, UniProt P51813)
T1 sequence (P51813 1-675): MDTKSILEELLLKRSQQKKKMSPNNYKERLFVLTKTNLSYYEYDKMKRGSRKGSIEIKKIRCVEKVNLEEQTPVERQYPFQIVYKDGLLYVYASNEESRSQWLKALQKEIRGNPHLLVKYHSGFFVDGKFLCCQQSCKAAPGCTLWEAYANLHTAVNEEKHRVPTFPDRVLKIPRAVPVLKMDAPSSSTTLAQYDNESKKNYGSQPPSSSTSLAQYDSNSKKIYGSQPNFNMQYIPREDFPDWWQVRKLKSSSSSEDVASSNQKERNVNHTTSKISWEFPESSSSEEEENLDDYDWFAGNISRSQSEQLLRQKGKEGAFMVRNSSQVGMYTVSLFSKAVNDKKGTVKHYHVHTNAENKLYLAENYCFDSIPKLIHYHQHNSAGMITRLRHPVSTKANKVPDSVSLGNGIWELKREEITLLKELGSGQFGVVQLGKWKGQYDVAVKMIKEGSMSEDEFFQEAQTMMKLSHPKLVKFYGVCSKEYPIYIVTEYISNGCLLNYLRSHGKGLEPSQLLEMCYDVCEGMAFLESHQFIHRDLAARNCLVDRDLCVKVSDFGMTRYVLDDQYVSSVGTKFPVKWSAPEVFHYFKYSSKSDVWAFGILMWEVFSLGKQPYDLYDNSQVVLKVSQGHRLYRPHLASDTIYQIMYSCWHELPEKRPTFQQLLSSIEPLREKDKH

EphA1(h) = target: T2, EphA1(h) (Homo sapiens, UniProt P21709)
T2 sequence (P21709 26-976): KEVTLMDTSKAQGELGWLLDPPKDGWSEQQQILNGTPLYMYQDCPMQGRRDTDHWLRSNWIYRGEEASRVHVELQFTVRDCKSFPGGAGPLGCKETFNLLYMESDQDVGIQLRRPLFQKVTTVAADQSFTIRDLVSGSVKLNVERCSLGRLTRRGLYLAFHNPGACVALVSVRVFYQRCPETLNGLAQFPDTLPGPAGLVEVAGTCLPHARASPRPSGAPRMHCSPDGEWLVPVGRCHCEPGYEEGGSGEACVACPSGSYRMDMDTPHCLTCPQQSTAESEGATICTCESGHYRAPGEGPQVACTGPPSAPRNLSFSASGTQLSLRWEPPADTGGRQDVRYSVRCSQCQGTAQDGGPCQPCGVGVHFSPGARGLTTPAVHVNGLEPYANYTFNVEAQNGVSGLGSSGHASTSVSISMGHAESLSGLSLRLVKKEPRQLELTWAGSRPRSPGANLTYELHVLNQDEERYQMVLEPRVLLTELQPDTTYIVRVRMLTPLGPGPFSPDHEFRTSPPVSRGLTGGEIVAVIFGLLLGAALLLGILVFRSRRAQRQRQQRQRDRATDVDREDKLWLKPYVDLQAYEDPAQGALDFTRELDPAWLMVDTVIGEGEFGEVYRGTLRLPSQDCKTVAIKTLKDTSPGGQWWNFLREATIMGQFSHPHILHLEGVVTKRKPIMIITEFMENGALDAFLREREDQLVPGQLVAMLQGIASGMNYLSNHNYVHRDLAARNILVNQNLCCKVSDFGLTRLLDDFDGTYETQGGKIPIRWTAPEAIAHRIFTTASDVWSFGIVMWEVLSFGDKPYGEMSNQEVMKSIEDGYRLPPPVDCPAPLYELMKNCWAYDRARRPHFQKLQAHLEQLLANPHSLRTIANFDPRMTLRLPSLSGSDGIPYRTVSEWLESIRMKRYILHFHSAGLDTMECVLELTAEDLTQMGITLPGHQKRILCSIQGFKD

PAR-1Bα(h) = PAR-1Bα(h) (Homo sapiens, UniProt Q7KZI7)
TrkB(h) = TrkB(h) (Homo sapiens, UniProt Q16620)
EGFR(T790M, L858R)(h) = EGFR(T790M, L858R)(h) (Homo sapiens, UniProt P00533, L858R/T790M)
Abl(Q252H)(h) = Abl(Q252H)(h) (Homo sapiens, UniProt P00519, Q252H)
GSK3β(h) = GSK3β(h) (Homo sapiens, UniProt P49841)
PDGFRα(D842V)(h) = PDGFRα(D842V)(h) (Homo sapiens, UniProt P16234, D842V)
Chain of PDGFRα(D842V)(h) (P16234 24-1089 D842V): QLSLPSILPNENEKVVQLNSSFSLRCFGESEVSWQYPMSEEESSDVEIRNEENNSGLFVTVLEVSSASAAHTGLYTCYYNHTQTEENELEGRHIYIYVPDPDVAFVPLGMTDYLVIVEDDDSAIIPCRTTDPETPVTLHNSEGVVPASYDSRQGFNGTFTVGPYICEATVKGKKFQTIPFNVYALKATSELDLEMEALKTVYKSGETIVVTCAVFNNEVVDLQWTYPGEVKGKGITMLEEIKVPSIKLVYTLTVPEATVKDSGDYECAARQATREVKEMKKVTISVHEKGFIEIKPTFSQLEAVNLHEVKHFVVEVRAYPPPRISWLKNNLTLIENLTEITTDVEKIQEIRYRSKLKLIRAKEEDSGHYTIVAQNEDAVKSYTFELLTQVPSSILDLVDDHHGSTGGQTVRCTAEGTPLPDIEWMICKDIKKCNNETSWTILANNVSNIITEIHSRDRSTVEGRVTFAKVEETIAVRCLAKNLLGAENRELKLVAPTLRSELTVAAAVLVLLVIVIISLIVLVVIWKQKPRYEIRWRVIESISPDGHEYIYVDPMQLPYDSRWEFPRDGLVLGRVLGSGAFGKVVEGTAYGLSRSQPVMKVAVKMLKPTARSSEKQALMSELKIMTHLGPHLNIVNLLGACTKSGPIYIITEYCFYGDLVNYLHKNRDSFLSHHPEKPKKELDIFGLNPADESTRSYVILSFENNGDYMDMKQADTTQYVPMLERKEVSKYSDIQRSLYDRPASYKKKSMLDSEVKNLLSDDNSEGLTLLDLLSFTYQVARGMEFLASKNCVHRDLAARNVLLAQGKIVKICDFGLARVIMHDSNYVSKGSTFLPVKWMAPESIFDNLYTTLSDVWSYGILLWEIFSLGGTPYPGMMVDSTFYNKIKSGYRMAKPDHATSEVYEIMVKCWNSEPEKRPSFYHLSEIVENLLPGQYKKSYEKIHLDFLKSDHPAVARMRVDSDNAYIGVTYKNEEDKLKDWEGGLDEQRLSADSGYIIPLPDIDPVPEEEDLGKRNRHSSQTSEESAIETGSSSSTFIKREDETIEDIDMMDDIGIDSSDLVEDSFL

Chain of EGFR(T790M, L858R)(h) (P00533 25-1210 T790M/L858R): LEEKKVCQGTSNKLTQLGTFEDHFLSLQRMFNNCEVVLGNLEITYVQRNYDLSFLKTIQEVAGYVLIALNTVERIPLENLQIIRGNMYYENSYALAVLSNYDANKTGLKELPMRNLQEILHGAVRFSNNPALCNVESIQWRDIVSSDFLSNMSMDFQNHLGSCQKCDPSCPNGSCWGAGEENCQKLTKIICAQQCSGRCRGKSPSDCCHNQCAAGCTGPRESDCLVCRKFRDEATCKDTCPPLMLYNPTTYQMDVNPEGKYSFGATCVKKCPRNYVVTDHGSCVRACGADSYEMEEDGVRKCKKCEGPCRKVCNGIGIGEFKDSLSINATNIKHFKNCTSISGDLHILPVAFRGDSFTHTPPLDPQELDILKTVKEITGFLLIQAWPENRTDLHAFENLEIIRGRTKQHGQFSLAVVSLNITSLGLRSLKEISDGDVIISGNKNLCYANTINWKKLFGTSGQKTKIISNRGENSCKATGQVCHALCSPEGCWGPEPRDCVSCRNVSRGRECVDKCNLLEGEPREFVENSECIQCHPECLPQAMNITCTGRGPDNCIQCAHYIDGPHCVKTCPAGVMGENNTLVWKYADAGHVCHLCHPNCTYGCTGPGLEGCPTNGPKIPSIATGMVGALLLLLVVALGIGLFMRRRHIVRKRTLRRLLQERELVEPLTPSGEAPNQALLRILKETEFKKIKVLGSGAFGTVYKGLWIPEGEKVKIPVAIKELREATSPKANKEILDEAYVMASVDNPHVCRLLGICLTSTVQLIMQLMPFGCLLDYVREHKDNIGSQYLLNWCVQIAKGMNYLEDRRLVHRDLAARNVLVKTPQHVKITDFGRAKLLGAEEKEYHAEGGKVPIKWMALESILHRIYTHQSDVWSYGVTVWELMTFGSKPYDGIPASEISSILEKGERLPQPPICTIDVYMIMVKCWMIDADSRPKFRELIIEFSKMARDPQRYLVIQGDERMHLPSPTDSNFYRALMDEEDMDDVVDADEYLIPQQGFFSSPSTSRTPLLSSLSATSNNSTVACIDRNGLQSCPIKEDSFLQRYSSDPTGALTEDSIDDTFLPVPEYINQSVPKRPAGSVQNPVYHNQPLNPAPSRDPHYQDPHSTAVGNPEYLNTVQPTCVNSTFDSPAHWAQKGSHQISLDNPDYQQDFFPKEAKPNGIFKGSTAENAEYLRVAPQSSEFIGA
Chain of PAR-1Bα(h) (Q7KZI7 1-725 isoform Q7KZI7-4): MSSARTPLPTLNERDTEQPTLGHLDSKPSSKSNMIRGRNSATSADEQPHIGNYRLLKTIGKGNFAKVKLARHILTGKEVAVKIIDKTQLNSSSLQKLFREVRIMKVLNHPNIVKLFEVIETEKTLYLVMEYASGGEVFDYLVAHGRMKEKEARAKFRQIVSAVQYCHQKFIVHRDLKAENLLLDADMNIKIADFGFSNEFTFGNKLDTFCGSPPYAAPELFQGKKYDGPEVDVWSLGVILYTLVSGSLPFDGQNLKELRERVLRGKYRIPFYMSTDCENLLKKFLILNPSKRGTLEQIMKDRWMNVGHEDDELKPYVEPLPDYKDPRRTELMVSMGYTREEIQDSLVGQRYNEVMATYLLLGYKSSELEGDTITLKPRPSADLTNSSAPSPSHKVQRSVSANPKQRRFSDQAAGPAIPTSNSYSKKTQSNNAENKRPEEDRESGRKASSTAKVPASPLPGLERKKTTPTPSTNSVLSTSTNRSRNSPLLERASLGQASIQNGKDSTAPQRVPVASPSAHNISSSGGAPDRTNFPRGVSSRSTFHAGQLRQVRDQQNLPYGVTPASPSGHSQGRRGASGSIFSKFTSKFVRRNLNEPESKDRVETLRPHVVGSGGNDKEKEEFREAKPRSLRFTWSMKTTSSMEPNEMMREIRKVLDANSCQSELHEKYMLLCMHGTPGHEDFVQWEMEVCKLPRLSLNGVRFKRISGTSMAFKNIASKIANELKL
Chain of CDK1/cyclinB(h) (P06493 whole entry): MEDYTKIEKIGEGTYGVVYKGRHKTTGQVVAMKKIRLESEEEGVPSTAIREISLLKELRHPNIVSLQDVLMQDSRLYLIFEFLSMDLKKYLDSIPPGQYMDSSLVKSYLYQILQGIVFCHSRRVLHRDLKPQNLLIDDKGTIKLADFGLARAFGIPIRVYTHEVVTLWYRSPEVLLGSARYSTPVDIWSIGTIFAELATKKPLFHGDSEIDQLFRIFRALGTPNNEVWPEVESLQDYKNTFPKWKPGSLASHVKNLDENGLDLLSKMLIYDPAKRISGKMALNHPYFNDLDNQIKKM
Chain of CDK1/cyclinB(h) (P14635 whole entry partner): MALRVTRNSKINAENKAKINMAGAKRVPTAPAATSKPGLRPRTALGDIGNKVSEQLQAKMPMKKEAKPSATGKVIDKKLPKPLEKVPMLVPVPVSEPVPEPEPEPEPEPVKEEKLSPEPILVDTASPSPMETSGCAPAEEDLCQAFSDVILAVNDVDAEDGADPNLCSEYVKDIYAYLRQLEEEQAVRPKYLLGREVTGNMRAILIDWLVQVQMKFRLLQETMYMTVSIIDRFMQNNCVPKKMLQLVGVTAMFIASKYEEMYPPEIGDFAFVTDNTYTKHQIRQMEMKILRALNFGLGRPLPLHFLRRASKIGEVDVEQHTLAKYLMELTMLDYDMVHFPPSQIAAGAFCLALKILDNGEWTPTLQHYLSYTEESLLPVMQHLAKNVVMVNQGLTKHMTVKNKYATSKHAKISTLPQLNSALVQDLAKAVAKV
Chain of GSK3β(h) (P49841 whole entry): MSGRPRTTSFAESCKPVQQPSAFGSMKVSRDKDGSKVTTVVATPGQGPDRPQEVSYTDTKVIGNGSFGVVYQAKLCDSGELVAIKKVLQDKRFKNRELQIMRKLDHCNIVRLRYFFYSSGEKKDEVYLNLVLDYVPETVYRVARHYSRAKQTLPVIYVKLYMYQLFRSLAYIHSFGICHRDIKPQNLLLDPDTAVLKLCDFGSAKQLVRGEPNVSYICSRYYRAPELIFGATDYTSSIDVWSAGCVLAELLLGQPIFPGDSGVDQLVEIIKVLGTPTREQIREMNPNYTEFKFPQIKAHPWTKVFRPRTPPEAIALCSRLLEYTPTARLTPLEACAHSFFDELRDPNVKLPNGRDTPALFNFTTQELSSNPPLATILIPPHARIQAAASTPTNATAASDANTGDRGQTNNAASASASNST
Chain of cKit(V560G)(h) (P10721 26-976 V560G): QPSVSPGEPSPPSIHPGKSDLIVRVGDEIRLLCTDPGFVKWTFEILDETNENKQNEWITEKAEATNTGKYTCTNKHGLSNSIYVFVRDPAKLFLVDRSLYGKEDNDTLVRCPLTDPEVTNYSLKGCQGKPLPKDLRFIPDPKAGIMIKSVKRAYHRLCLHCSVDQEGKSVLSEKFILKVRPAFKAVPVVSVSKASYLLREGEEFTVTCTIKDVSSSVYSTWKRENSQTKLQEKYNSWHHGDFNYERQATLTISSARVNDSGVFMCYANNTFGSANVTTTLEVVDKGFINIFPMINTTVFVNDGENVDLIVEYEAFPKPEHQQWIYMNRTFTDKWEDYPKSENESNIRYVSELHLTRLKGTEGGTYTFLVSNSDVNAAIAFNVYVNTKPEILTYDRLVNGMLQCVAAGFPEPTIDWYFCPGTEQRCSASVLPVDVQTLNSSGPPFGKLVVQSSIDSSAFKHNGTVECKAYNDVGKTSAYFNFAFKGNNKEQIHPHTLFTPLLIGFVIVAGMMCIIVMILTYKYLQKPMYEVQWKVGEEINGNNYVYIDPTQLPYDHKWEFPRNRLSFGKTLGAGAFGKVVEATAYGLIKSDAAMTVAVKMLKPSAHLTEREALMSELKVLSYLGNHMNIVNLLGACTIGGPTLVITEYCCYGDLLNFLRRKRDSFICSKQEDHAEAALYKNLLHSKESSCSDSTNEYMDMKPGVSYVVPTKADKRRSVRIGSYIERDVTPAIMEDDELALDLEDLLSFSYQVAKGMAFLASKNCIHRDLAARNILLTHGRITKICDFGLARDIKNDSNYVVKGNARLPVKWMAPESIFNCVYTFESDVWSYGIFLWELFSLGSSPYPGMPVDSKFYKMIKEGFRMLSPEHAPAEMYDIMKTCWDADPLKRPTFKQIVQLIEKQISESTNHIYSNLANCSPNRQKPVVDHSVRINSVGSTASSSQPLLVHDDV

## CC(C)CCC(=O)[C@]1(O)C(O)=C(C(=O)C(C)C)C(=O)[C@H]1CCC(C)C [TH2, tetrahydroiso-cohumulone]
CDK1/cyclinB(h); 1 μg/ml
  kinase inhibition: 111% of control
CDK1/cyclinB(h); 5 μg/ml
  kinase inhibition: 111% of control
CDK1/cyclinB(h); 25 μg/ml
  kinase inhibition: 90% of control
CDK1/cyclinB(h); 50 μg/ml
  kinase inhibition: 86% of control
CDK1/cyclinB(h); 100 μg/ml
  kinase inhibition: 74% of control
cKit(V560G)(h); 1 μg/ml
  kinase inhibition: 112% of control
cKit(V560G)(h); 5 μg/ml
  kinase inhibition: 114% of control
cKit(V560G)(h); 25 μg/ml
  kinase inhibition: 105% of control
cKit(V560G)(h); 50 μg/ml
  kinase inhibition: 90% of control
cKit(V560G)(h); 100 μg/ml
  kinase inhibition: 78% of control
Bmx(h); 1 μg/ml
  kinase inhibition: 88% of control
Bmx(h); 5 μg/ml
  kinase inhibition: 90% of control
Bmx(h); 25 μg/ml
  kinase inhibition: 89% of control
Bmx(h); 50 μg/ml
  kinase inhibition: 79% of control
Bmx(h); 100 μg/ml
  kinase inhibition: 61% of control
EphA1(h); 1 μg/ml
  kinase inhibition: 117% of control
EphA1(h); 5 μg/ml
  kinase inhibition: 116% of control
EphA1(h); 25 μg/ml
  kinase inhibition: 108% of control
EphA1(h); 50 μg/ml
  kinase inhibition: 99% of control
EphA1(h); 100 μg/ml
  kinase inhibition: 85% of control
PAR-1Bα(h); 1 μg/ml
  kinase inhibition: 109% of control
PAR-1Bα(h); 5 μg/ml
  kinase inhibition: 113% of control
PAR-1Bα(h); 25 μg/ml
  kinase inhibition: 114% of control
PAR-1Bα(h); 50 μg/ml
  kinase inhibition: 116% of control
PAR-1Bα(h); 100 μg/ml
  kinase inhibition: 88% of control
TrkB(h); 1 μg/ml
  kinase inhibition: 136% of control
TrkB(h); 5 μg/ml
  kinase inhibition: 132% of control
TrkB(h); 25 μg/ml
  kinase inhibition: 144% of control
TrkB(h); 50 μg/ml
  kinase inhibition: 118% of control
TrkB(h); 100 μg/ml
  kinase inhibition: 78% of control
EGFR(T790M, L858R)(h); 1 μg/ml
  kinase inhibition: 104% of control
EGFR(T790M, L858R)(h); 5 μg/ml
  kinase inhibition: 109% of control
EGFR(T790M, L858R)(h); 25 μg/ml
  kinase inhibition: 95% of control
EGFR(T790M, L858R)(h); 50 μg/ml
  kinase inhibition: 94% of control
EGFR(T790M, L858R)(h); 100 μg/ml
  kinase inhibition: 82% of control
Abl(Q252H)(h); 1 μg/ml
  kinase inhibition: 96% of control
Abl(Q252H)(h); 5 μg/ml
  kinase inhibition: 96% of control
Abl(Q252H)(h); 25 μg/ml
  kinase inhibition: 66% of control
Abl(Q252H)(h); 50 μg/ml
  kinase inhibition: 68% of control
Abl(Q252H)(h); 100 μg/ml
  kinase inhibition: 47% of control
GSK3β(h); 1 μg/ml
  kinase inhibition: 98% of control
GSK3β(h); 5 μg/ml
  kinase inhibition: 86% of control
GSK3β(h); 25 μg/ml
  kinase inhibition: 55% of control
GSK3β(h); 50 μg/ml
  kinase inhibition: 44% of control
GSK3β(h); 100 μg/ml
  kinase inhibition: 40% of control
PDGFRα(D842V)(h); 1 μg/ml
  kinase inhibition: 113% of control
PDGFRα(D842V)(h); 5 μg/ml
  kinase inhibition: 124% of control
PDGFRα(D842V)(h); 25 μg/ml
  kinase inhibition: 128% of control
PDGFRα(D842V)(h); 50 μg/ml
  kinase inhibition: 129% of control
PDGFRα(D842V)(h); 100 μg/ml
  kinase inhibition: 127% of control
